Results from patent US6953800B2, “Use of selective antagonists of the α1B-adrenergic receptor for improvement of sexual dysfunction” (Recordati S.A. Chemical, priority 1999, dated 2005).
Where a name gives a salt, the structure may show the parent alone. Values belong to the molecule of their own block, whether it stands above or below them.

Key:
[1] = target: T1, human α1a-adrenoceptor (Homo sapiens, UniProt P35348); assay: biochemical
T1 sequence (P35348 1-466): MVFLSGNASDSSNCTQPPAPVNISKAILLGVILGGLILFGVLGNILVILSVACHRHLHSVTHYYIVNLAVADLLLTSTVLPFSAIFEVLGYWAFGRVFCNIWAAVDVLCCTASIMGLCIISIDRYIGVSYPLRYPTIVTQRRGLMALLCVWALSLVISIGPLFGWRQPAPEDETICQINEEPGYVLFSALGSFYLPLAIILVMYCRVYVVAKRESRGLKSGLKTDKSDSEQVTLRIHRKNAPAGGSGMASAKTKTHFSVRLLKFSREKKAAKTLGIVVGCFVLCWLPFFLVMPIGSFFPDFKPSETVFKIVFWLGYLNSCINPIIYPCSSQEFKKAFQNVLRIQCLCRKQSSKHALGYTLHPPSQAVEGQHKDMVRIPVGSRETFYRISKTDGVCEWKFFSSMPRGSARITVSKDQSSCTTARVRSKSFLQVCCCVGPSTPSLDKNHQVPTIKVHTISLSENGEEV

[2] = target: T2, human α1d-adrenoceptor (Homo sapiens, UniProt P25100); assay: [3H]Prazosin binding, cloned human α1d-adrenoceptor in CHO cell membranes; details: read-out: Affinity (Ki) α1d, human cloned receptors
T2 construct: expressed in transfected cells
T2 sequence (P25100 1-572): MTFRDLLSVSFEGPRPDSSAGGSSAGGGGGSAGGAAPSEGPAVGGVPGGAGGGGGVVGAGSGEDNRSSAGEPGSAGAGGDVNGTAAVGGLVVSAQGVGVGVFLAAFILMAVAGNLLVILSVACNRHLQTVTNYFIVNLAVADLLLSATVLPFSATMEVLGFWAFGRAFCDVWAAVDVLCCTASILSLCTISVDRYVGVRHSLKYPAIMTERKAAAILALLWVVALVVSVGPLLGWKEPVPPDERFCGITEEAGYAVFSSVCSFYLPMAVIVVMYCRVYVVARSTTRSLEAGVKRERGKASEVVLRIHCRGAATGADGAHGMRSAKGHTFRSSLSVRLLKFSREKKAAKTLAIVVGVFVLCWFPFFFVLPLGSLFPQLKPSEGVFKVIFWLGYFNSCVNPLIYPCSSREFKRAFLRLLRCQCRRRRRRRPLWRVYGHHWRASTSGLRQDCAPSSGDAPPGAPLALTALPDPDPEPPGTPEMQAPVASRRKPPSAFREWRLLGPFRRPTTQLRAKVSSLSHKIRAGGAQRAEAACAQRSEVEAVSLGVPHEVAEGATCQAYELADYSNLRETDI
Procedure: (§1) Binding to cloned human α1-adrenoceptor subtypes was performed in membranes from CHO cells (Chinese hamster ovary cells) transfected by electroporation with DNA expressing the gene encoding each α1-adrenoceptor subtype. […] The incubation was stopped by addition of ice-cold Tris buffer and rapid filtration through 0.2% polyethyleneimine-pretreated Whatman GF/B or Schleicher & Schuell GF52 filters.
(§2) Data are expressed as mean Ki. All patents and other references cited herein are incorporated by reference in their entirety.

[3] = target: T3, human α1b-adrenoceptor (Homo sapiens, UniProt P35368); assay: [3H]Prazosin binding, cloned human α1b-adrenoceptor in CHO cell membranes; details: CHO membranes; read-out: Affinity (Ki) α1b, human cloned receptors
T3 construct: expressed in transfected cells
T3 sequence (P35368 1-520): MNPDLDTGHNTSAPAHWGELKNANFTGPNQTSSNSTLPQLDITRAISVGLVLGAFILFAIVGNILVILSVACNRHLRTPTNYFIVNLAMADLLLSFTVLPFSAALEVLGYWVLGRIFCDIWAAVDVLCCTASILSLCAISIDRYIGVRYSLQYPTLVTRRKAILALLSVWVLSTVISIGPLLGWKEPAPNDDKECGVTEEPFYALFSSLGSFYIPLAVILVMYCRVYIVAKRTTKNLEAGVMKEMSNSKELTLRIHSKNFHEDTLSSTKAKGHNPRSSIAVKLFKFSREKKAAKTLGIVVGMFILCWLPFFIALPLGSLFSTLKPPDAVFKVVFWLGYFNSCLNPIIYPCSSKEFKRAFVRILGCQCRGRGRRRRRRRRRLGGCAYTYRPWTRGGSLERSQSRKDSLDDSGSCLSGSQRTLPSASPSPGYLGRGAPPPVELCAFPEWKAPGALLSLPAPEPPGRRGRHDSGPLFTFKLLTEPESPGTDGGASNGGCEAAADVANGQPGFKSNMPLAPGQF
Procedure: as §1, §2

[4] = tested on: anaesthetised dogs; details: dog, in vivo
Procedure: (§3) Male beagle dogs were anaesthetised with pentobarbital sodium (i.v. Nembutal, 35 mg/kg for induction and 4 mg/kg/h for maintenance) and intubated with an endotracheal cuffed tube to facilitate free ventilation. A collateral of the left femoral vein was cannulated with a PE catheter for infusion of the anaesthetic. Systemic BP was monitored via a Mikro-tip 6F (Millar Instruments) pressure transducer introduced into the aortic arch through the right common carotid artery. ICP was measured by means of a 20-gauge needle placed into the left or right corpus cavernosum and the same needle was used for intracavernous injection of the drugs. The needle was attached to a catheter filled with heparinized saline (25 IU/mL). […] The compounds to be tested were injected intracavernously in a volume of 0.5 ml and, after each injection, the needle was flushed with 0.5 ml of saline. The vehicles for compound dissolution were tested before the first dose of each drug. The compounds were administered in a cumulative way, with a 30-minute interval between doses. ICP (mmHg) was measured at the peak effect after the administration of the compounds. The duration of tumescence (DT, min) was measured from the beginning of the rise of ICP over its basal value up to the return to baseline. The systolic blood pressure and diastolic blood pressure (mmHg) were measured at the peak effect after the administration of compounds, in order to evaluate the effects of the compounds on BP independently from the effects on ICP. Moreover, the systolic blood pressure was measured at the time of maximal ICP value after intracavernous injection, to evaluate the ICP/BP ratios. […] The data were reported as mean ±s.e. of the mean, or percent variation (±s.e.) of the basal values.

[5] = target: T4, bovine α1a-adrenoceptor (Bos taurus, UniProt P18130); assay: [3H]Prazosin binding, bovine α1a-adrenoceptor in COS-7 cell membranes
T4 construct: expressed in transfected cells; host or cells: COS-7 cells (transient), membranes
T4 sequence (P18130 1-466): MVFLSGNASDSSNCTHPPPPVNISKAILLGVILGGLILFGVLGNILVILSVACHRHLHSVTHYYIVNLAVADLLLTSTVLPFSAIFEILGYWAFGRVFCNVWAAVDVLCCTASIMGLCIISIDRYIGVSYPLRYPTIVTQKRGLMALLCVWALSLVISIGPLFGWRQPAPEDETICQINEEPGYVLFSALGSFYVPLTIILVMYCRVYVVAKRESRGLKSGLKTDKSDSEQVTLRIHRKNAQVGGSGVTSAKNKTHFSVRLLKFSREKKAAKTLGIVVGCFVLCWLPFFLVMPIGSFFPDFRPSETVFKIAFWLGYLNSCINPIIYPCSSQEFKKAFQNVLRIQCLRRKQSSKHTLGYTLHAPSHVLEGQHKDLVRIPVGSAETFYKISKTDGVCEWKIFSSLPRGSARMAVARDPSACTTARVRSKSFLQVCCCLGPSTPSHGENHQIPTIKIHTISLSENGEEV
Procedure: The incubation was stopped by addition of ice-cold Tris buffer and rapid filtration through 0.2% polyethyleneimine pretreated Whatman GF/B or Schleicher & Schuell GF52 filters.
as §2

[6] = tested on: anaesthetised rats; assay: Intracavernous and blood pressure recording in rats; assay type: in vivo, rat; details: for decrease of blood pressure: after injection of 1000 μg/kg intracavernous; for effect on ICP (in words): intracavernous injection; for hypotension (in words, FIG. 1): marked hypotension defined as decrease of blood pressure equal to or higher than 40%
Procedure: Rats were anaesthetised by an intraperitoneal injection of urethane (1.5 g/kg in sterile saline) and placed on an homeothermic blanket. Their temperature was maintained at 37° C. Rats were tracheotomized to facilitate spontaneous breathing and to prevent aspiration of saliva. A catheter filled with heparinized saline (25 IU/ml) was placed into the carotid to record mean blood pressure (BP, mmHg). The penis was desheathed and the corpora cavernosa were exposed. A 25-gauge stainless-steel needle was inserted into one corpus cavernosum to record intracavernous pressure (ICP in mmHg). […] Pressure catheters were connected to pressure transducers (Model 750, Elcomatic Ltd, Glasgow, UK).
Following a resting period of 10 minutes, the compound solvent was delivered intracavernously (50 μl/injection). Then, increasing doses of one compound were injected every ten minutes by the same route. Five injections (one solvent plus four cumulative doses) were performed in each rat, and five rats were used for the study of one compound. For each injection and for each compound, mean BP averaged over the ten minutes following the injection was measured. The maximal ICP value reached during the ten-minute period following an injection was also recorded. In these experiments, all the compounds tested were dissolved and diluted in propylene glycol-Sorensen solvent.

[7] = tested on: anaesthetised dogs; assay: Intracavernous and blood pressure recording in dogs; details: for increase of ICP in comparison with basal ICP values: 1000 μg/kg (1000 μg given for prazosin, phentolamine) intracavernous; for effect on ICP (in words): intracavernous injection
Procedure: as §3

Structure (SMILES): COc1cc2nc(N3CCN(C(=O)c4ccco4)[C@H](C(=O)NC(C)(C)C)C3)nc(N)c2cc1OC [Compound C, 4-Amino-6,7-dimethoxy-2-[(3S)-3-(t-butylcarbamoyl)-4-(2-furoyl)-1-piperazinyl]-quinazoline]
Ki [1]: 94.1 nM
Ki [2]: 25.1 nM
Ki [3]: 1.76 nM

Structure (SMILES): COc1cc2nc(N3CCN(C(=O)COc4c(OC)cccc4C(C)C)C4CCCCC43)nc(N)c2cc1OC (racemic) [Example 4, 4-Amino-6,7-dimethoxy-2-[(±)-4-(2-isopropyl-6-methoxyphenoxyacetyl)-cis-octahydro-1-quinoxalinyl]quinazoline hydrochloride.2.5H2O]
Ki [3]: 0.16 nM

Structure (SMILES): Cc1ccc(N(CC2=NCCN2)c2cccc(O)c2)cc1 [Phentolamine]
hypotension (in words) [4]: relevant hypotension
Ki [5]: 3.22 nM
BP ([6]; 10 μg/kg intracavernous): 79.8 ± 7.3 mmHg
ICP ([6]; 10 μg/kg intracavernous): 12.6 ± 1.7 mmHg
BP ([6]; 30 μg/kg intracavernous): 72.2 ± 4.3 mmHg
ICP ([6]; 30 μg/kg intracavernous): 10.1 ± 1.4 mmHg
BP ([6]; 100 μg/kg intracavernous): 61.1 ± 7.0 mmHg
ICP ([6]; 100 μg/kg intracavernous): 10.5 ± 1.4 mmHg
BP ([6]; 300 μg/kg intracavernous): 63.0 ± 2.2 mmHg
ICP ([6]; 300 μg/kg intracavernous): 12.5 ± 2.3 mmHg
BP ([6]; 1000 μg/kg intracavernous): 59.8 ± 3.6 mmHg
ICP ([6]; 1000 μg/kg intracavernous): 20.6 ± 2.1 mmHg
decrease of blood pressure [6]: 30%
effect on ICP (in words) [6]: did not modify ICP up to 300 μg/kg
hypotension (in words, FIG. 1) [6]: marked hypotension
ICP ([7]; 10 μg/kg intracavernous): 24.0 ± 0.0 mmHg
ICP ([7]; 30 μg/kg intracavernous): 20.0 ± 2.3 mmHg
ICP ([7]; 300 μg/kg intracavernous): 16.0 ± 2.3 mmHg
increase of ICP in comparison with basal ICP values [7]: 43 mmHg
DT (duration of tumescence) ([7]; 1000 μg/kg intracavernous): 4.2 ± 2.1 min
ICP ([7]; 1000 μg/kg intracavernous): 62.7 ± 24.3 mmHg
effect on ICP (in words) [7]: increased ICP at doses that induced substained hypotension

Further lines, with some results ahead:

Ki [3]: 0.65 nM
Structure (SMILES): COc1cc2nc(N3CCN(C(=O)OCc4ccccc4)C4CCCCC43)nc(N)c2cc1OC (racemic) [Example 7, 4-Amino-6,7-dimethoxy-2-[(±)-4-benzyloxycarbonyl-cis-octahydro-1-quinoxalinyl]-quinazoline hydrochloride.0.75H2O]

Ki [3]: 0.24 nM
Structure (SMILES): COc1cc2nc(N3CCN(C(=O)c4ccc(C)o4)C4CCCCC43)nc(N)c2cc1OC (racemic) [Example 5, 4-Amino-6,7-dimethoxy-2-[(±)-4-(5-methyl-2-furoyl)-cis-octahydro-1-quinoxalinyl]-quinazoline hydrochloride.2.5H2O]

hypotension (in words) [4]: marked hypotension
Structure (SMILES): COc1cc2nc(N3CCN(C(=O)c4ccco4)CC3)nc(N)c2cc1OC [Prazosin]
BP ([6]; 10 μg/kg intracavernous): 59.4 ± 7.7 mmHg
ICP ([6]; 10 μg/kg intracavernous): 20.1 ± 6.4 mmHg
BP ([6]; 30 μg/kg intracavernous): 60.0 ± 7.4 mmHg
ICP ([6]; 30 μg/kg intracavernous): 14.9 ± 3.3 mmHg
BP ([6]; 100 μg/kg intracavernous): 56.8 ± 7.9 mmHg
ICP ([6]; 100 μg/kg intracavernous): 19.0 ± 6.6 mmHg
BP ([6]; 300 μg/kg intracavernous): 41.3 ± 3.0 mmHg
ICP ([6]; 300 μg/kg intracavernous): 18.9 ± 6.8 mmHg
BP ([6]; 1000 μg/kg intracavernous): 43.7 ± 4.1 mmHg
ICP ([6]; 1000 μg/kg intracavernous): 26.9 ± 3.5 mmHg
decrease of blood pressure [6]: 41%
effect on ICP (in words) [6]: unable to elicit any ICP increase
hypotension (in words, FIG. 1) [6]: marked hypotension
ICP ([7]; 30 μg/kg intracavernous): 25.5 ± 6.3 mmHg
ICP ([7]; 100 μg/kg intracavernous): 27.0 ± 8.7 mmHg
ICP ([7]; 300 μg/kg intracavernous): 37.5 ± 5.0 mmHg
decrease of diastolic blood pressure ([7]; 1000 μg intracavernous): 71 mmHg
increase of ICP in comparison with basal ICP values [7]: 36 mmHg
ICP ([7]; 1000 μg/kg intracavernous): 52.5 ± 5.0 mmHg
effect on ICP (in words) [7]: increased ICP at doses that induced substained hypotension
